Read-outs that look alike come from different tables or passages of the source.
Tested on: SHP-77 (small cell lung cancer) cells
Assay: Anti-proliferation assay on small cell lung cancer cells
Assay type: cell-based
Details: Homo sapiens, SHP77
Protocol: SHP-77 (small cell lung cancer) cells were incubated for 72 hours with 100 ug/ml, 30 ug/ml, and 10 ug/ml each of AyuFlex®, Capros® Phyto-BGS®, PrimaVie®, Sensoril®, Ayuric®, and Crominex®, and tested according to the anti-proliferative assay described above. Cells were plated at 1.25 k/well in 384 well plates. Standard of care drug docetaxel was also tested at a 10 uM concentration as a control. Anti-proliferative assays were generally performed as discussed above, in triplicate, with detection reagent CellTiterGlo® as discussed for instance in Example I. Tables 77-79 show data for controls and that the data passed quality control parameters.

Q: Which results are given for COc1cccc2c1C(=O)c1c(O)c3c(c(O)c1C2=O)C[C@@](O)(C(=O)CO)C[C@@H]3O[C@H]1C[C@H](N)[C@H](O)[C@H](C)O1 [Doxorubicin, doxorubicin]?
A: inhibition at 10 µM (10 uM, 72 h, read-out: % Inhibition Average (SD)): 93%; inhibition at 10 µM (10 uM, 72 h, read-out: % Inhibition n1): 94%; inhibition at 10 µM (10 uM, 72 h, read-out: % Inhibition n2): 93%; inhibition at 10 µM (10 uM, 72 h, read-out: % Inhibition n3): 93%; inhibition at 10 µM (drug 10 uM, read-out: inhibition): 93%

From patent publication US20220233624A9, “ANTI-CANCER AND ANTI-PROLIFERATIVE COMPOSITIONS, AND METHODS FOR THEIR USE IN TREATING CANCER” (Natreon, Inc., priority 2020, published 2022)
